# Measured values: US11723362B2, “Broad-spectrum synergistic antimicrobial compositions” (The United States of America, as represented by the …, priority 2019, dated 2023)
# Tests used:
# A. brasiliensis = test: Minimum inhibitory concentration (MIC) in Mueller-Hinton broth, pH 7.4; type: cell-based, Aspergillus brasiliensis; set-up: Minimum inhibitory concentration: unit not given here; conditions: for Minimum inhibitory concentration: Table 2
# Protocol: (§1) This example illustrates the preparation of testing parameters for antimicrobial activity of components of the inventive composition and related compositions for comparison. […] Microbes were grown on Mueller-Hinton agar (MHA, Sigma-Aldrich, St. Louis, Mo.) for 7 days until heavy sporulation was present. Spores from two agar plates were captured in sterile phosphate-buffered saline (PBS) using a sterile swab. Spores were enumerated by serial dilution in Dey-Engley neutralizing broth (DEB; Sigma-Aldrich) and spread plating on MHA. A typical spore stock was determined to contain ˜2×10^7 spores/mL. Bacteria were grown in MH broth for 24 h at 37° C., enumerated by plating, and diluted to the desired concentration as indicated.
# (§2) To assess the antimicrobial activity of hydroxamic acids and derivatives, the inhibitory properties of commercially available hydroxylamines and hydroxamic acids were compared to their alcohol and carboxylic acid analogues diluted in Mueller-Hinton broth at pH 7.4 (Table 1).
# E. coli = test: as above; type: cell-based, Escherichia coli
# Protocol: as §1, §2
# S. aureus = test: as above; type: cell-based, Staphylococcus aureus
# Protocol: as §1, §2
# P. aeruginosa = test: as above; type: cell-based, Pseudomonas aeruginosa; set-up: Minimum inhibitory concentration: unit not given here; conditions: for Minimum inhibitory concentration: Table 2, ATCC 9027
# Protocol: as §1, §2
# Guanylhydrazones 7 and 8, which represent a class of broad-spectrum antimicrobials, alone and in combination with hydroxamic acids were evaluated.
# C. albicans = test: as above; type: cell-based, Candida albicans
# Protocol: as §1, §2
# [1] = tested on: Aspergillus brasiliensis ATCC 16404; test: Fungicidal activity in ionic surfactant hand wash / foamy hand soap base formula (HW); type: cell-based; conditions: pH 7.0; for Log reduction Week 1 / Log reduction Week 2: 1 × 10^6 CFU/mL, 25° C.; for CFU/mL, incubation time 3 d / CFU/mL, incubation time 7 d / CFU/mL, incubation time 13 d / CFU/mL, incubation time 18 d / CFU/mL, incubation time 20 d: 0.4% hydroxamic acid alone, minimum detection limit 5.0 × 10^1; for Log Reduction Day 5 / Log Reduction Day 12: substance alone 0.5%, high loading 10^7 CFU/mL
# Protocol: as §1
# All test formulas were adjusted to the desired pH using citric acid and/or NaOH. […] All tubes were kept at room temperature (˜21-22° C.) for 3 weeks. About 100 μL of each inoculated foamy hand soap mixture was diluted 1:10 in DEB and 100 μL of this dilution was spread plated on MHA at several time points (e.g. 3 d, 7 d, 13 d, 18 d, and 20 d). Plates were incubated at room temperature for 3-5 days for mold (1-2 days for bacteria) and colonies enumerated.
# The preservative activity of a hydroxamic acid/guanylhydrazone combination was compared to other antimicrobial mixtures in an ionic surfactant-containing formula. […] The fungicidal properties of a mixture of benzhydroxamic acid and guanylhydrazone (1+7) was compared to commercial antimicrobials representing different functional classes (Table 3).
# [2] = tested on: Pseudomonas aeruginosa ATCC 9027; test: Bactericidal activity in ionic surfactant hand wash / foamy hand soap base formula (HW); type: cell-based; conditions: pH 7.0; for Day 3 Log Reduction / Day 10 Log Reduction: HW, 1 × 10^6 CFU/ml, 37° C.
# Protocol: This example illustrates the preparation of testing parameters for antimicrobial activity of components of the inventive composition and related compositions for comparison. […] Mold were grown and minimum inhibitory tests performed as previously reported (see e.g., Buckley, H. L. et al. ACS Sustain. Chem. Eng. 5, 4320-4331, 2017). Microbes were grown on Mueller-Hinton agar (MHA, Sigma-Aldrich, St. Louis, Mo.) for 7 days until heavy sporulation was present. Spores from two agar plates were captured in sterile phosphate-buffered saline (PBS) using a sterile swab. Spores were enumerated by serial dilution in Dey-Engley neutralizing broth (DEB; Sigma-Aldrich) and spread plating on MHA. A typical spore stock was determined to contain ˜2×10^7 spores/mL. Bacteria were grown in MH broth for 24 h at 37° C., enumerated by plating, and diluted to the desired concentration as indicated.
# To test the various compounds, a foamy hand soap base formula was made with sodium lauryl sulfate (SLS, 2.4% w/w; Sulfochem SLS-PHP [30% active], The Lubrizol Corporation, Wickliffe, Ohio) and cocoamidopropyl betaine (CAPB, 1.2% w/w; Mackam 35 [30% active], Solvay S.A, Brussels, Belgium) in deionized water and sterilized by filtration (0.22 μm, PVDF; VWR, Radnor, Pa.). All test formulas were adjusted to the desired pH using citric acid and/or NaOH. All tubes were inoculated with 250 μL of spore inoculum (described above) to a total volume of 5 mL, for a final spore concentration of ˜1×10^6 spores/mL in each tube. […] About 100 μL of each inoculated foamy hand soap mixture was diluted 1:10 in DEB and 100 μL of this dilution was spread plated on MHA at several time points (e.g. 3 d, 7 d, 13 d, 18 d, and 20 d). Plates were incubated at room temperature for 3-5 days for mold (1-2 days for bacteria) and colonies enumerated.
# [3] = hand soap formula, 0.4% 1 alone
compound,measurement,setting,value
CC(C)(C)O [t-Butanol],MIC,A. brasiliensis,>0.5 wt %
same,MIC,E. coli,>0.5 wt %
same,MIC,S. aureus,5 wt %
same,MIC,P. aeruginosa,20 wt %
same,MIC,C. albicans,0.5 wt %
O=C(CCCCCCC(=O)NO)NO [Suberohydroxamic acid],MIC,A. brasiliensis,0.5 wt %
same,MIC,E. coli,>0.5 wt %
same,MIC,S. aureus,0.5 wt %
same,MIC,P. aeruginosa,0.5 wt %
same,MIC,C. albicans,0.5 wt %
"CCCCc1ccc(C(=O)NO)cc1 [4-n-butylbenzhydroxamic acid 6, 4-n-butylbenzhydroxamic acid]",Minimum inhibitory concentration,A. brasiliensis,0.008
same,Minimum inhibitory concentration,P. aeruginosa,0.1
same,Log reduction Week 1,"[1]; HW, 0.4 wt %",4 Log
same,Log reduction Week 2,"[1]; HW, 0.4 wt %",none
same,Day 3 Log Reduction,[2]; substance alone 0.4%,0 Log
same,Day 10 Log Reduction,[2]; substance alone 0.4%,0 Log
CCON.Cl [O-ethylhydroxylamine HCl],MIC,A. brasiliensis,0.1 wt %
same,MIC,E. coli,0.1 wt %
same,MIC,S. aureus,0.1 wt %
same,MIC,P. aeruginosa,0.1 wt %
same,MIC,C. albicans,0.2 wt %
Cl.NOCc1ccccc1 [O-benzylhydroxylamine HCl],MIC,A. brasiliensis,0.2 wt %
same,MIC,E. coli,0.2 wt %
same,MIC,S. aureus,0.2 wt %
same,MIC,P. aeruginosa,0.2 wt %
same,MIC,C. albicans,0.5 wt %
"CC(C)c1ccc(C(=O)NO)cc1 [4-isopropylbenzhydroxamic acid 5, 4-isopropylbenzhydroxamic acid]",Minimum inhibitory concentration,A. brasiliensis,0.04
same,"CFU/mL, incubation time 3 d",[1]; hand soap formula,>2.5 × 10^4 CFU/mL
same,"CFU/mL, incubation time 7 d",[1]; hand soap formula,1.0 × 10^4 CFU/mL
same,"CFU/mL, incubation time 13 d",[1]; hand soap formula,1.0 × 10^2 CFU/mL
same,"CFU/mL, incubation time 18 d",[1]; hand soap formula,<5.0 × 10^1 CFU/mL
same,"CFU/mL, incubation time 20 d",[1]; hand soap formula,<5.0 × 10^1 CFU/mL
Cl.ONCc1ccccc1 [N-benzylhydroxylamine HCl],MIC,A. brasiliensis,0.2 wt %
same,MIC,E. coli,0.5 wt %
same,MIC,S. aureus,0.5 wt %
same,MIC,P. aeruginosa,0.2 wt %
same,MIC,C. albicans,0.5 wt %
OCc1ccccc1 [Benzyl alcohol],MIC,A. brasiliensis,0.5 wt %
same,MIC,E. coli,0.5 wt %
same,MIC,S. aureus,0.5 wt %
same,MIC,P. aeruginosa,0.2 wt %
same,MIC,C. albicans,0.5 wt %
O=C1CCC(=O)N1O [N-hydroxysuccinimide],MIC,A. brasiliensis,>0.5 wt %
same,MIC,E. coli,>0.5 wt %
same,MIC,S. aureus,0.5 wt %
same,MIC,P. aeruginosa,0.5 wt %
Oc1ccccc1 [Phenol],MIC,A. brasiliensis,0.1 wt %
same,MIC,E. coli,>0.5 wt %
same,MIC,S. aureus,0.2 wt %
same,MIC,P. aeruginosa,0.2 wt %
same,MIC,C. albicans,0.2 wt %
"O=C(NO)c1ccccc1 [Benzhydroxamic acid 1, Benzhydroxamic acid]",MIC,A. brasiliensis,0.02 wt %
same,Minimum inhibitory concentration,A. brasiliensis,0.02
same,MIC,E. coli,0.5 wt %
same,MIC,S. aureus,0.06 wt %
same,MIC,P. aeruginosa,0.1 wt %
same,Minimum inhibitory concentration,P. aeruginosa,0.1
same,MIC,C. albicans,0.03 wt %
same,Log reduction Week 1,"[1]; HW, 0.5 wt %",1 Log
same,Log reduction Week 2 (day 12),"[1]; HW, 0.5 wt %, day 12",4 Log
same,Log Reduction Day 5,[1]; HW,1 Log
same,Log Reduction Day 12,[1]; HW,4 Log
same,CFU/mL after 7 d contact time,[1]; [3],1 × 10^3 CFU/mL
same,CFU/mL after 7 d contact time,[2]; [3],2 × 10^4 CFU/mL
CC(=O)O [Acetic acid],MIC,A. brasiliensis,0.2 wt %
same,MIC,E. coli,0.1 wt %
same,MIC,S. aureus,0.06 wt %
same,MIC,P. aeruginosa,0.06 wt %
same,MIC,C. albicans,0.2 wt %
O=C(O)c1ccccc1 [Benzoic acid],MIC,A. brasiliensis,0.2 wt %
same,MIC,E. coli,0.2 wt %
same,MIC,S. aureus,0.2 wt %
same,MIC,P. aeruginosa,0.2 wt %
same,MIC,C. albicans,0.2 wt %
CCO [Ethanol],MIC,A. brasiliensis,0.47 wt %
same,MIC,S. aureus,10 wt %
same,MIC,P. aeruginosa,10 wt %
same,MIC,C. albicans,10 wt %
CCCOC(=O)c1cc(O)c(O)c(O)c1 [Propyl gallate],Log Reduction Day 5,[1]; HW,1 Log
same,Log Reduction Day 12,[1]; HW,1 Log
"CCCc1ccc(C(=O)NO)cc1 [4-n-propylbenzhydroxamic acid 4, 4-n-propylbenzhydroxamic acid]",Minimum inhibitory concentration,A. brasiliensis,0.02
same,"CFU/mL, incubation time 3 d",[1]; hand soap formula,>2.5 × 10^4 CFU/mL
same,"CFU/mL, incubation time 7 d",[1]; hand soap formula,>2.2 × 10^4 CFU/mL
same,"CFU/mL, incubation time 13 d",[1]; hand soap formula,5.0 × 10^2 CFU/mL
same,"CFU/mL, incubation time 18 d",[1]; hand soap formula,1.5 × 10^2 CFU/mL
same,"CFU/mL, incubation time 20 d",[1]; hand soap formula,<5.0 × 10^1 CFU/mL
CC(=O)NO [Acetohydroxamic acid],MIC,A. brasiliensis,0.5 wt %
same,MIC,E. coli,0.5 wt %
same,MIC,S. aureus,0.5 wt %
same,MIC,P. aeruginosa,0.5 wt %
same,MIC,C. albicans,0.2 wt %
"Cc1ccc(C(=O)NO)cc1 [4-methylbenzhydroxamic acid 2, 4-methylbenzhydroxamic acid]",Minimum inhibitory concentration,A. brasiliensis,0.02
same,Minimum inhibitory concentration,P. aeruginosa,0.3
same,Log reduction Week 1,"[1]; HW, 0.2 wt %",4 Log
same,Log reduction Week 2,"[1]; HW, 0.2 wt %",4 Log
same,Day 3 Log Reduction,[2]; substance alone 0.2%,2 Log
same,Day 10 Log Reduction,[2]; substance alone 0.2%,4 Log
Sorbitan caprylate,Log Reduction Day 12,[1]; HW,0 Log
Cl.NOc1ccccc1 [O-phenylhydroxylamine HCl],MIC,A. brasiliensis,0.06 wt %
same,MIC,E. coli,0.3 wt %
same,MIC,S. aureus,>0.5 wt %
same,MIC,P. aeruginosa,0.2 wt %
same,MIC,C. albicans,0.1 wt %
CCCCCCC(O)CO (centres unmarked) [Caprylyl Glycol],Log Reduction Day 5,[1]; HW,0 Log
same,Log Reduction Day 12,[1]; HW,1 Log
CON.Cl [O-methylhydroxylamine HCl],MIC,A. brasiliensis,0.1 wt %
same,MIC,E. coli,0.2 wt %
same,MIC,S. aureus,0.06 wt %
same,MIC,P. aeruginosa,0.1 wt %
same,MIC,C. albicans,0.5 wt %
O=C(O)c1ccccc1O [Salicylic acid],MIC,A. brasiliensis,0.5 wt %
same,MIC,E. coli,0.2 wt %
same,MIC,S. aureus,0.1 wt %
same,MIC,P. aeruginosa,0.2 wt %
same,MIC,C. albicans,0.5 wt %
CC(C)(C)ON.Cl [O-tert-butylhydroxylamine HCl],MIC,A. brasiliensis,0.5 wt %
same,MIC,E. coli,0.5 wt %
same,MIC,S. aureus,0.1 wt %
same,MIC,P. aeruginosa,0.2 wt %
same,MIC,C. albicans,0.5 wt %
CCCCCCCC(=O)O [Caprylic acid],MIC,A. brasiliensis,0.5 wt %
same,MIC,E. coli,0.5 wt %
same,MIC,S. aureus,0.5 wt %
same,MIC,P. aeruginosa,0.5 wt %
same,MIC,C. albicans,0.5 wt %
"CCc1ccc(C(=O)NO)cc1 [4-ethylbenzhydroxamic acid 3, 4-ethylbenzhydroxamic acid]",Minimum inhibitory concentration,A. brasiliensis,0.06
same,Minimum inhibitory concentration,P. aeruginosa,0.5
same,Log reduction Week 1,"[1]; HW, 0.2 wt %",4 Log
same,Log reduction Week 2,"[1]; HW, 0.2 wt %",1 Log
same,Log reduction Week 1,"[1]; HW, 0.5 wt %",4 Log
same,Log reduction Week 2,"[1]; HW, 0.5 wt %",4 Log
same,Day 3 Log Reduction,[2]; substance alone 0.2%,1 Log
same,Day 10 Log Reduction,[2]; substance alone 0.2%,0 Log
CO [Methanol],MIC,A. brasiliensis,0.5 wt %
same,MIC,S. aureus,20 wt %
same,MIC,P. aeruginosa,20 wt %
same,MIC,C. albicans,20 wt %
